Test results as given in PubChem BioAssay (NCI).
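All cell lines were grown in 96-well plates and treated with compound for 48 hours. GI50: concentration for 50% inhibition of growth. The concentration for full growth arrest is given as TGI.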

Columns and labels:
Test in all cases: DTP human tumour cell line panel, 48 h
[1] = tested on: A498 renal
[2] = tested on: A549 NSCLC
[3] = tested on: HCT-116 colon
[4] = tested on: RXF 393 renal
[5] = tested on: SK-MEL-5 melanoma
[6] = tested on: UACC-62 melanoma
[7] = tested on: UO-31 renal
[8] = tested on: MCF7 breast
[9] = tested on: PC-3 prostate
[10] = tested on: T-47D breast

| Compound | TGI [1] | TGI [2] | TGI [3] | TGI [4] | TGI [5] | TGI [6] | TGI [7] | GI50 [2] | GI50 [3] | GI50 [8] | TGI [8] | GI50 [9] | TGI [9] | GI50 [4] | GI50 [5] | GI50 [10] | TGI [10] | GI50 [6] | GI50 [7] | GI50 [1] |
| --- | --- | --- | --- | --- | --- | --- | --- | --- | --- | --- | --- | --- | --- | --- | --- | --- | --- | --- | --- | --- |
| COc1ccc2oc3c(OC)c(OC)c(OC)cc3c(=O)c2c1 | > 100 µM | > 100 µM | > 100 µM | 84.4 µM | > 100 µM | > 100 µM | > 100 µM | – | – | – | – | – | – | – | – | – | – | – | – | – |
| [N-]=[N+]=NCCCn1c2c(c3ccc([N+](=O)[O-])cc3c1=O)C(=O)c1cc(Br)ccc1-2 | – | > 100 µM | > 100 µM | > 100 µM | > 100 µM | > 100 µM | > 100 µM | > 100 µM | 3.01 µM | 8.15 µM | > 100 µM | > 100 µM | > 100 µM | > 100 µM | > 100 µM | > 100 µM | > 100 µM | > 100 µM | > 100 µM | – |
| CCOC(=O)/C(=C/c1cccc(Cl)c1)N(CC)CC | > 100 µM | > 100 µM | > 100 µM | – | > 100 µM | > 100 µM | > 100 µM | – | – | – | – | – | – | – | – | – | – | – | – | – |
| COc1ccc(-c2ccc(/C=N/n3c(COc4ccccc4Cl)nn(CN4CCOCC4)c3=S)o2)c([N+](=O)[O-])c1 | – | > 100 µM | 41.1 µM | 61.6 µM | – | > 100 µM | > 100 µM | 27.4 µM | 19.6 µM | 19.4 µM | 47.4 µM | 20.7 µM | 61.4 µM | 22.3 µM | – | 53.9 µM | > 100 µM | 35 µM | 37.1 µM | – |
| C1CCCCc2nc3c(nc2CCC1)c1nc2c(nc1c1nc4c(nc31)CCCCCCCC4)CCCCCCCC2 | > 100 µM | > 100 µM | > 100 µM | – | – | > 100 µM | > 100 µM | – | – | – | – | – | – | – | – | – | – | – | – | – |
| COc1cc(C2C3=C(COC3=O)N(CCO)c3cc4c(cc32)OCCO4)cc(OC)c1OC (centres undefined) | 0.441 µM | > 50 µM | – | – | 0.916 µM | > 50 µM | > 50 µM | 0.487 µM | 0.178 µM | 0.192 µM | > 50 µM | 0.185 µM | > 50 µM | – | 0.179 µM | 0.287 µM | > 50 µM | – | 1.82 µM | 0.14 µM |
| CC1=C(SC#N)S(=O)(=O)N(c2ccccc2)C(C)=C1SC#N | 92.1 µM | > 100 µM | 69.8 µM | > 100 µM | > 100 µM | > 100 µM | > 100 µM | – | – | – | – | – | – | – | – | – | – | – | – | – |
| COc1ccccc1NC(=O)C1=C(C)NC(C)=C(C(=O)Nc2ccccc2OC)C1/C=C/c1ccccc1 | > 100 µM | > 100 µM | > 100 µM | – | > 100 µM | > 100 µM | > 100 µM | – | – | – | – | – | – | – | – | – | – | – | – | – |
| CN(C)CC1CC/C(=C\c2ccc3c(c2)OCO3)C1=O (centres undefined) | 52.1 µM | > 75.3 µM | 18.6 µM | 29.1 µM | 28 µM | 30.4 µM | 24.8 µM | – | – | – | 19.8 µM | – | 27.1 µM | – | – | – | – | – | – | – |
| CC/C(Cc1ccccc1)=C(\c1ccc(OCCN2CCCC2)cc1)c1ccc(OC(=O)NCc2ccccc2)cc1 | – | 3.47 µM | 3 µM | 3.28 µM | 3.11 µM | 3.24 µM | 3 µM | 1.88 µM | 1.64 µM | 0.0994 µM | 2.16 µM | 1.86 µM | 3.55 µM | 1.77 µM | 1.71 µM | 1.41 µM | 4.23 µM | 1.81 µM | 1.61 µM | – |
| COC1CC(O)C(OC(=O)c2ccccc2)C(C)O1 (centres undefined) | > 100 µM | > 100 µM | > 100 µM | – | > 100 µM | > 100 µM | – | – | – | – | – | – | – | – | – | – | – | – | – | – |
| ClCc1ccccc1Cn1cnc2ncnc(Cl)c21 | 32.8 µM | 23.9 µM | 4.11 µM | 6.5 µM | 4.12 µM | 5.12 µM | 10.7 µM | 4.44 µM | 1.5 µM | 3.64 µM | > 100 µM | 4.51 µM | 19.2 µM | 1.65 µM | 1.37 µM | – | – | 1.88 µM | 3.22 µM | 18.6 µM |
| CCCCCC(=O)Nc1nc2nc[nH]c2c(=O)[nH]1 | > 100 µM | > 100 µM | > 100 µM | > 100 µM | > 100 µM | > 100 µM | > 100 µM | – | – | – | – | – | – | – | – | – | – | – | – | – |
| Cc1ccc2nc(NC(=O)C(=O)C(C#N)c3ccc(Cl)cc3)sc2c1 (centres undefined) | – | > 50 µM | > 50 µM | > 50 µM | – | > 50 µM | > 50 µM | – | – | – | – | – | – | – | – | – | – | – | – | – |
| CC1OC(=O)C(O)=C1O (centres undefined) | – | > 100 µM | > 100 µM | > 100 µM | > 100 µM | > 100 µM | > 100 µM | – | – | – | – | – | – | – | – | – | – | – | – | – |
| c1ccc(OCCC[P+](c2ccccc2)(c2ccccc2)c2ccccc2)cc1 | 7.97 µM | 20.3 µM | 13.4 µM | – | 1.74 µM | – | 36.6 µM | 2.36 µM | 1.42 µM | 0.677 µM | 10.3 µM | 0.58 µM | 6.17 µM | – | 0.438 µM | 0.383 µM | 29.5 µM | – | 13.9 µM | 1.94 µM |
| CCCCCCCC1(c2ccc(N)cc2)CCC(=O)NC1=O (centres undefined) | – | > 100 µM | – | > 100 µM | 49.6 µM | > 100 µM | 74.8 µM | – | – | – | – | – | – | – | – | – | – | – | – | – |
| CCOC(=O)c1cc(-c2ccc(-c3cc(C(=O)OCC)c(C#N)c(N)c3C#N)cc2)c(C#N)c(N)c1C#N | – | > 100 µM | > 100 µM | > 100 µM | – | > 100 µM | > 100 µM | – | – | – | – | – | – | – | – | – | – | – | – | – |
| CC(C)c1cccc(C(C)C)c1N1C(=O)C(=O)C(c2nc3ccccc3o2)C(=O)C1=O | > 100 µM | > 100 µM | > 100 µM | > 100 µM | > 100 µM | > 100 µM | > 100 µM | – | – | – | – | – | – | – | – | – | – | – | – | – |
| COC(=O)c1c(-c2cccs2)oc(-c2cccs2)c1C(=O)OC | 94.4 µM | > 100 µM | > 100 µM | > 100 µM | – | > 100 µM | 60.1 µM | 39.1 µM | 30.3 µM | 13.2 µM | > 100 µM | 26.3 µM | > 100 µM | 31 µM | – | 28.5 µM | > 100 µM | 27.3 µM | 19.3 µM | 31.8 µM |
| CCC(C)CC(C)CC(C)/C=C(\C)C1=C(C)CC(C)(O)O1 (centres undefined) | > 100 µM | > 100 µM | > 100 µM | > 100 µM | > 100 µM | > 100 µM | > 100 µM | – | – | – | – | – | – | – | – | – | – | – | – | – |
| NC1c2ccccc2Nc2ccccc21 | 22.8 µM | 19.8 µM | 13.6 µM | 15.9 µM | 17.1 µM | 15.5 µM | 13.4 µM | – | – | – | – | – | – | – | – | – | – | – | – | – |
